Patent EP0454060B1, “3-(Mercaptoalkyl)-quinazoline-2,4(1H,3H)-diones, processes for their preparation, and pharmaceutical compositions” (priority 1990, dated 1991)

Tested on: SE-spezifischer rosettenbildender Zellen
Assay: Rosette test (SE-specific rosettes)
Assay type: in vivo, Maus (Inzuchtstamm CBA)
Details: oral administration
Text: Der Nachweis immunstimulierender Effekte wurde weiterhin an der Maus (Inzuchtstamm CBA) und u. a. mit Hilfe folgender Nachweismethoden geführt: • Plaque-Test zum Nachweis von SE-spezifischen IgM- und IgG-PBZ, • Rosettentest.
Aus den Werten wird deutlich, daß die Verbindungen der allgemeinen Formel I einen gut nachweisbaren Effekt auf die Effektor-T-Lymphozyten-abhängige verzögerte Uberempfindlichkeit haben. Kontaktdermatitis-Werte ab 120 (≙ 20 % Steigerung gegenüber der Kontrolle) bzw. unter 80 werden als Nachweis eines stimulatorischen bzw. suppressorischen Effektes angesehen. Antikörpertiter-Differenzen von >+1 bzw. <-1 verdeutlichen den stimulatorischen bzw. suppressorischen Effekt der Substanzen auf die humorale Immunantwort. 2. Untersuchungen zur immunstimulierenden Wirkung • 2.1 Plaque-Test zum Nachweis von SE-spezifischen IgM- und IgG-PBZ Zur Prüfung immunstimulierender Effekte wurde u. a. auch der Einfluß von Verbindungen der allgemeinen Formel I auf die humorale Immunantwort an Mäusen des Inzuchtstammes CBA und mittels Hämolyse-Plaque-Test (HPT) untersucht. Diese Technik erlaubt die quantitative und getrennte Erfassung IgM- und IgG-Antikörper produzierender Zellen (= Plaque bildende Zellen; PBZ). Die Immunisierung mit Schaferythrozyten (SE) erfolgte am Tag 0, die Substanzapplikation (Tagesdosis 1.10^-5 mol/kg Körpermasse; peroral) an den Tagen -1 bis +3 (zur Erfassung der IgM-PBZ) bzw. an den Tagen +1 bis +5 (zur Erfassung der IgG-PBZ). • 2.2 Ergebnisse: Durch tägliche und über 5 Tage gehende Gabe von 2,0 mg der Verbindung gemäß Beispiel 1 pro kg Körpermasse konnte die Zahl der IgM-PBZ auf einen Durchschnittswert von 352 % im Vergleich zur Kontrolle (100 %) gesteigert werden. Die gleiche Form der Behandlung führte zu einer Erhöhung der IgG-PBZ auf 497 % (Kontrolle: 100 %). In beiden Fällen erwies sich die Differenz zur Kontrolle im t-Test mit p < 0,001 als signifikant. […]

Q: How did the “SE-spezifischer rosettenbildender Zellen” value turn out when `O=c1[nH]c2ccccc2c(=O)n1CCCS` [Beispiel 6, 3-(3-Mercaptopropyl)-chinazolin-2,4(1H,3H)-dion] was run?
A: signifikante Förderung

Q: `COc1cc2[nH]c(=O)n(CC(C)S)c(=O)c2cc1OC` (centres unmarked) [Beispiel 14e, 6,7-Dimethoxy-3-(2-mercaptopropyl)-chinazolin-2,4(1H,3H)-dion] was tested. Which “SE-spezifischer rosettenbildender Zellen” value did it give?
A: signifikante Förderung

Tested on: Kontaktüberempfindlichkeit vom verzögerten Typ (Effektor-T-Lymphozyten-Aktivität)
Assay: Percutaneous test for contact hypersensitivity after DNFB immunisation
Assay type: in vivo, Meerschweinchen (Albino-Koloniezucht)
Details: Sensibilisierungsgrad versus control group; 2 mg/kg daily peroral, day +1 to +6; screening values; from 120 stimulatory, below 80 suppressive
Text: Der Nachweis einer immunregulatorischen Wirksamkeit wurde am Meerschweinchen (Albino-Koloniezucht) und u. a. mit Hilfe folgender Techniken geführt: • Perkutaner Test zum Nachweis einer Kontaktüberempfindlichkeit vom verzögerten Typ (Effektor-T-Lymphozyten-Aktivität), • Takatsy-Test zum Nachweis DNP-spezifischer Serumantikörper (humorale Immunantwort).
Der Nachweis der antiviralen Wirksamkeit erfolgte in vitro an Hühnerembryonalzellen mit Vertretern verschiedener Virusgruppen. 1. Untersuchungen zur immunregulatorischen Wirksamkeit 1.1 Perkutaner Test zum Nachweis einer Kontaktüberempfindlichkeit Die epikutane Applikation von Dinitrofluorbenzol (DNFB) führt beim Meerschweinchen und bei der Maus zur Entwicklung einer verzögerten Überempfindlichkeit, eines Immunstatus, der an die klonale Vermehrung TNP-spezifischer T-Lymphozyten (TDTH-Ly) gebunden ist. Erfolgt nach einer Latenzperiode von mindestens 5 Tagen eine erneute DNFB-Applikation, kommt es zu einer Freisetzung von Lymphokinen durch Reaktion mit den TDTH-Ly dieses Hautbereiches und dadurch zu einer lokal begrenzten Entzündungsreaktion. Sieben Tage nach der Immunisierung mit 1 %igem DNFB wurden die Flanken der Versuchstiere enthaart und durch Aufbringen je eines Tropfens 0,5 %, 0,1 %, 0,05 %, 0,025 % und 0,01 %iger DNFB-Lösung getestet. Die noch positive Konzentration ist dem Grad der Sensibilisierung umgekehrt proportional. Die Testergebnisse ergeben sich aus Stärke und Anzahl der positiven Hautreaktionen, der Stimulierungsindex (SI) aus dem Vergleich der Test- und Kontrolltiere. Die Substanzbehandlung erfolgte peroral. Mittels Schlundsonde wurde eine tägliche Dosis von 2 mg/kg Körpermasse als Suspension in Wasser gegeben. Behandlungsdauer: 1 Tag + 1 (ein Tag nach der Immunisierung) bis +6. Die Kontrolltiere erhielten nur die eingesetzte Lactose. 1.2 Takatsy-Test Nach Immunisierung mit Dinitrofluorbenzol (DNFB) kommt es beim Meerschweinchen auch zur Bildung DNP-spezifischer humoraler Antikörper, die bevorzugt der IgG1-Substanzklasse angehören. 14 Tage nach primärer epikutaner Applikation von DNFB wurde den Versuchstieren Blut durch Herzpunktion entnommen. Die Bestimmung der Antikörperkonzentration erfolgte nach einer von Takatsy beschriebenen Methode (Takatsy, G.: A new method for the preparation of serial dilutions in a quick and accurate way. Kiserletes Orvostudomany 2 (1950) 263 - 396). Als Indikatorzellen wurden TNP-beladene Schaferythrozyten verwendet (Kopplung nach Rittenberg und Pratt; Rittenberg, M. B. and Pratt, K. L.: Antitrinitrophenyl (TNP) plaque assay. Primary response of BALB/c mice to soluble and particulate immunogen. Proc. Soc. exp. Biol. Med., 132 (1969) 575 - 579). 1.3 Ergebnisse Sensibilisierungsgrad (%) und Serumantikörperkonzentration (AK-Titer-Differenz) gegenüber der jeweiligen Kontrollgruppe (Screening-Werte)
Aus den Werten wird deutlich, daß die Verbindungen der allgemeinen Formel I einen gut nachweisbaren Effekt auf die Effektor-T-Lymphozyten-abhängige verzögerte Uberempfindlichkeit haben. Kontaktdermatitis-Werte ab 120 (≙ 20 % Steigerung gegenüber der Kontrolle) bzw. unter 80 werden als Nachweis eines stimulatorischen bzw. suppressorischen Effektes angesehen. Antikörpertiter-Differenzen von >+1 bzw. <-1 verdeutlichen den stimulatorischen bzw. suppressorischen Effekt der Substanzen auf die humorale Immunantwort. 2. Untersuchungen zur immunstimulierenden Wirkung • 2.1 Plaque-Test zum Nachweis von SE-spezifischen IgM- und IgG-PBZ Zur Prüfung immunstimulierender Effekte wurde u. a. auch der Einfluß von Verbindungen der allgemeinen Formel I auf die humorale Immunantwort an Mäusen des Inzuchtstammes CBA und mittels Hämolyse-Plaque-Test (HPT) untersucht. Diese Technik erlaubt die quantitative und getrennte Erfassung IgM- und IgG-Antikörper produzierender Zellen (= Plaque bildende Zellen; PBZ). […]

Q: What does the source list for `Cc1ccc2[nH]c(=O)n(CCCS)c(=O)c2c1` [Beispiel 12, 6-Methyl-3-(3-mercaptopropyl)-chinazolin-2,4(1H,3H)-dion]?
A: Kontaktdermatitis (Kontrolle: 100) 24-Stunden-Reaktion: 120%; Kontaktdermatitis (Kontrolle: 100) 48-Stunden-Reaktion: 130%

Q: Which “Kontaktdermatitis (Kontrolle: 100) 24-Stunden-Reaktion” value does the source give for `CC(S)Cn1c(=O)[nH]c2ccccc2c1=O` (centres unmarked) [Beispiel 7, 3-(2-Mercaptopropyl)-chinazolin-2,4(1H,3H)-dion] here?
A: 230%

Q: What does the source list for `Cc1ccc2[nH]c(=O)n(CCS)c(=O)c2c1` [Beispiel 14a, 6-Methyl-3-(2-mercaptoethyl)-chinazolin-2,4(1H,3H)-dion]?
A: Kontaktdermatitis (Kontrolle: 100) 24-Stunden-Reaktion: 60%; Kontaktdermatitis (Kontrolle: 100) 48-Stunden-Reaktion: 60%

Q: Which “Kontaktdermatitis (Kontrolle: 100) 24-Stunden-Reaktion” value does the source give for `O=c1[nH]c2ccc(Cl)cc2c(=O)n1CCS` [Beispiel 13, 6-Chlor-3-(2-mercaptoethyl)-chinazolin-2,4(1H,3H)-dion] here?
A: 120%

Q: And the “Kontaktdermatitis (Kontrolle: 100) 48-Stunden-Reaktion” value?
A: 130%

Q: `O=c1[nH]c2ccc(F)cc2c(=O)n1CCCS` [Beispiel 14d, 6-Fluor-3-(3-mercaptopropyl)-chinazolin-2,4(1H,3H)-dion] was tested. Which “Kontaktdermatitis (Kontrolle: 100) 24-Stunden-Reaktion” value did it give?
A: 100%

Q: And the “Kontaktdermatitis (Kontrolle: 100) 48-Stunden-Reaktion” value?
A: 150%

Q: `O=c1[nH]c2ccc(Br)cc2c(=O)n1CCS` [Beispiel 5, 6-Brom-3-(2-mercaptoethyl)-chinazolin-2,4(1H,3H)-dion] was tested. Which “Kontaktdermatitis (Kontrolle: 100) 24-Stunden-Reaktion” value did it give?
A: 150%

Q: And the “Kontaktdermatitis (Kontrolle: 100) 48-Stunden-Reaktion” value?
A: 120%

Q: Which “Kontaktdermatitis (Kontrolle: 100) 24-Stunden-Reaktion” value does the source give for `O=c1[nH]c2ccc(Cl)cc2c(=O)n1CCCS` [Beispiel 8, 6-Chlor-3-(3-mercaptopropyl)-chinazolin-2,4(1H,3H)-dion] here?
A: 100%

Q: And the “Kontaktdermatitis (Kontrolle: 100) 48-Stunden-Reaktion” value?
A: 115%

Q: How did the “Kontaktdermatitis (Kontrolle: 100) 24-Stunden-Reaktion” value turn out when `O=c1[nH]c2ccc(Br)cc2c(=O)n1CCCS` [Beispiel 14b, 6-Brom-3-(3-mercaptopropyl)-chinazolin-2 4(1H 3H)-dion] was run?
A: 105%

Q: And the “Kontaktdermatitis (Kontrolle: 100) 48-Stunden-Reaktion” value?
A: 100%

Q: With `COc1cc2[nH]c(=O)n(CCS)c(=O)c2cc1OC` [Beispiel 3, 3-(2-Mercaptoethyl)-6,7-dimethoxychinazolin-2,4(1H,3H)-dion] as the molecule, how does the “Kontaktdermatitis (Kontrolle: 100) 24-Stunden-Reaktion” value read?
A: 100%

Q: Which “Kontaktdermatitis (Kontrolle: 100) 24-Stunden-Reaktion” value does the source give for `O=c1[nH]c2ccccc2c(=O)n1CCCS` [Beispiel 6, 3-(3-Mercaptopropyl)-chinazolin-2,4(1H,3H)-dion] here?
A: 70%

Q: What about the “Kontaktdermatitis (Kontrolle: 100) 48-Stunden-Reaktion” value of the same molecule?
A: 40%

Q: `COc1cc2[nH]c(=O)n(CC(C)S)c(=O)c2cc1OC` (centres unmarked) [Beispiel 14e, 6,7-Dimethoxy-3-(2-mercaptopropyl)-chinazolin-2,4(1H,3H)-dion] was tested. Which “Kontaktdermatitis (Kontrolle: 100) 24-Stunden-Reaktion” value did it give?
A: 100%

Q: For `O=c1[nH]c2ccc(F)cc2c(=O)n1CCS` [Beispiel 14c, 6-Fluor-3-(2-mercaptoethyl)-chinazolin-2,4(1H 3H)-dion], which “Kontaktdermatitis (Kontrolle: 100) 24-Stunden-Reaktion” value is on record?
A: 90%

Q: And the “Kontaktdermatitis (Kontrolle: 100) 48-Stunden-Reaktion” value?
A: 105%
